Patent publication US20250081967A1, “PESTICIDALLY ACTIVE HETEROCYCLIC DERIVATIVES WITH SULFOXIMINE CONTAINING SUBSTITUENTS” (SYNGENTA CROP PROTECTION AG, priority 2021, published 2025)

Key:
Type in all cases: in vivo
[1] = system: Myzus persicae; test: Activity against Myzus persicae (green peach aphid), systemic activity, pea seedlings; settings: Myzus persicae
Procedure: Example B5: Activity Against Myzus persicae (Green Peach Aphid) Systemic Activity
Roots of pea seedlings infested with an aphid population of mixed ages were placed directly in the aqueous test solutions prepared from 10′000 DMSO stock solutions. The samples were assessed for mortality 6 days after placing seedlings in test solutions.

[2] = system: Myzus persicae; test: Activity against Myzus persicae (green peach aphid), feeding/contact activity, sunflower leaf discs; settings: Myzus persicae, foliar, 144 h, application rate 200 ppm; feeding/contact; 6 days after infestation
Procedure: Example B4: Activity Against Myzus persicae (Green Peach Aphid) Feeding/Contact Activity
(§1) Sunflower leaf discs were placed on agar in a 24-well microtiter plate and sprayed with aqueous test solutions prepared from 10′000 ppm DMSO stock solutions. After drying, the leaf discs were infested with an aphid population of mixed ages. The samples were assessed for mortality 6 days after infestation.

[3] = system: Plutella xylostella; test: Activity against Plutella xylostella (diamond back moth), artificial diet, eggs; settings: 192 h, application rate 200 ppm, 8 days after infestation, read-out: effect in at least one of the two categories (mortality or growth inhibition)
Summary of the method: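 Artificial diet in wells treated with aqueous dilutions of 10′000 ppm DMSO stocks, dried, then infested with Plutella eggs. Mortality and growth inhibition scored against untreated samples 8 days after infestation.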

[4] = system: Diabrotica balteata; test: Activity against Diabrotica balteata (corn root worm), maize sprouts; settings: 96 h, application rate 200 ppm, L2 larvae, 4 days after infestation, read-out: effect in at least one of the two categories (mortality or growth inhibition)
Procedure: Example B3: Activity Against Diabrotica Balteata (Corn Root Worm)
Maize sprouts placed onto an agar layer in 24-well microtiter plates were treated with aqueous test solutions prepared from 10′000 ppm DMSO stock solutions by spraying. After drying, the plates were infested with L2 larvae (6 to 10 per well). The samples were assessed for mortality and growth inhibition in comparison to untreated samples 4 days after infestation.

[5] = system: Frankliniella occidentalis; test: Activity against Frankliniella occidentalis (western flower thrips), sunflower leaf discs; settings: foliar, 168 h, application rate 200 ppm, mixed ages, 7 days after infestation
Procedure: Example B8: Activity Against Frankliniella occidentalis (Western Flower Thrips)
as §1, with “in” for “in a”, “plates” for “plate”, “[…]” for “10′000 ppm”, “drying” for “drying,”, “a Frankliniella” for “an aphid”, “7” for “6”

[6] = system: Euschistus heros; test: Activity against Euschistus heros (neotropical brown stink bug), soybean leaf; settings: 120 h, application rate 200 ppm, N-2 nymphs, 5 days after infestation, read-out: effect in at least one of the two categories (mortality or growth inhibition)
Procedure: Example B7: Activity Against Euschistus heros (Neotropical Brown Stink Bug)
Soybean leaf on agar in 24-well microtiter plates were sprayed with aqueous test solutions prepared from 10′000 ppm DMSO stock solutions. After drying the leaf were infested with N-2 nymphs. The samples were assessed for mortality and growth inhibition in comparison to untreated samples 5 days after infestation.

[7] = system: Plutella xylostella; test: Activity against Plutella xylostella (diamond back moth), artificial diet, L2 larvae; settings: 120 h, application rate 200 ppm, 5 days after infestation, read-out: effect in at least one of the two categories (mortality or growth inhibition)
Procedure: Example B2: Activity Against Plutella xylostella (Diamond Back Moth)
(§2) 24-well microtiter plates with artificial diet were treated with aqueous test solutions prepared from 10′000 ppm DMSO stock solutions by pipetting. After drying, the plates were infested with L2 larvae (10 to 15 per well). The samples were assessed for mortality and growth inhibition in comparison to untreated samples 5 days after infestation.

[8] = system: Bemisia tabaci; test: Activity against Bemisia tabaci (cotton white fly), cotton leaf discs; settings: for mortality at 200 ppm: foliar, 144 h, application rate 200 ppm, adult white flies, 6 days after incubation
Procedure: Example B6: Activity Against Bemisia tabaci (Cotton White Fly)
Cotton leaf discs were placed on agar in 24-well microtiter plates and sprayed with aqueous test solutions prepared from 10′000 ppm DMSO stock solutions. After drying the leaf discs were infested with adult white flies. The samples were checked for mortality 6 days after incubation.

[9] = system: Spodoptera littoralis; test: Activity against Spodoptera littoralis (Egyptian cotton leaf worm), cotton leaf discs; settings: foliar, 72 h, application rate 200 ppm, L1 larvae, 3 days after infestation, read-out: control (mortality, anti-feeding effect or growth inhibition)
Summary of the method: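 Cotton leaf discs on agar sprayed with aqueous test solutions made from 10′000 ppm DMSO stocks, dried, then infested with five L1 larvae. Mortality, anti-feeding and growth inhibition scored versus untreated samples 3 days after infestation; control given when any category exceeds untreated.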

[10] = system: Tetranychus urticae; test: Activity against Tetranychus urticae (two-spotted spider mite), bean leaf discs; settings: foliar, 192 h, application rate 200 ppm, mixed population (mobile stages), 8 days after infestation
Procedure: Example B10: Activity Against Tetranychus urticae (Two-Spotted Spider Mite)
Bean leaf discs on agar in 24-well microtiter plates were sprayed with aqueous test solutions prepared from 10′000 ppm DMSO stock solutions. After drying the leaf discs were infested with a mite population of mixed ages. The samples were assessed for mortality on mixed population (mobile stages) 8 days after infestation.

[11] = system: Chilo suppressalis; test: Activity against Chilo suppressalis (striped rice stemborer), artificial diet; settings: 144 h, application rate 200 ppm, L2 larvae, 6 days after infestation
Procedure: Example B11: Activity Against Chilo suppressalis (Striped Rice Stemborer)
as §2, with “(6-8” for “(10 to 15”, “mortality, anti-feeding effect,” for “mortality”, “6” for “5”, “infestation. Control of Chilo suppressalis by a test sample is given when at least one of the categories mortality, anti-feedant effect, and growth inhibition is higher than the untreated sample.” for “infestation.”

[12] = 144 h, test rate 24 ppm, systemic, 6 days after placing seedlings in test solutions

Row | Compound | mortality at 24 ppm [1, 12] | mortality at 24 ppm ([1]; Myzus persicae (systemic), concentration 24 ppm) | mortality at 200 ppm [2] | percent effect (mortality or growth inhibition) at 200 ppm [3] | percent effect (mortality or growth inhibition) at 200 ppm [4] | mortality at 200 ppm [5] | percent effect (mortality or growth inhibition) at 200 ppm [6] | percent effect (mortality or growth inhibition) at 200 ppm [7] | mortality at 200 ppm [8] | percent control (mortality, anti-feedant effect or growth inhibition) at 200 ppm [9] | mortality at 200 ppm [10] | Mortality (%) ([8]; concentration 50 ppm) | percent control (mortality, anti-feedant effect or growth inhibition) at 200 ppm [11]
1 | CCS(=N)(=O)c1cc(OC(C)(C)C#N)cnc1-c1cn2cnc(C(F)(F)F)cc2n1 (single isomer, unassigned) [Compound P11-A, 2-[[5-(ethylsulfonimidoyl)-6-[7-(trifluoromethyl)imidazo[1,2-c]pyrimidin-2-yl]-3-pyridyl]oxy]-2-methyl-propanenitrile] | ≥ 80% | 100% | ≥ 80% | ≥ 80% | ≥ 80% | ≥ 80% | – | – | – | – | – | – | –
2 | CCS(=N)(=O)c1cc(OC(C)(C)C#N)cnc1-c1nc2cc(C(F)(F)F)n(C3CC3)c(=O)c2n1C (racemic) [Compound P1, 2-[[6-[5-cyclopropyl-3-methyl-4-oxo-6-(trifluoromethyl)imidazo[4,5-c]pyridin-2-yl]-5-(ethylsulfonimidoyl)-3-pyridyl]oxy]-2-methyl-propanenitrile] | ≥ 80% | – | ≥ 80% | – | ≥ 80% | ≥ 80% | ≥ 80% | ≥ 80% | ≥ 80% | ≥ 80% | – | – | –
3 | CCn1c(C(F)(F)F)cc2nc(-c3ncc(OC(C)(C)C#N)cc3S(=N)(=O)CC)n(C)c2c1=O (single isomer, unassigned) [Compound P19-B, 2-[[6-[5-ethyl-3-methyl-4-oxo-6-(trifluoromethyl)imidazo[4,5-c]pyridin-2-yl]-5-(ethylsulfonimidoyl)-3-pyridyl]oxy]-2-methyl-propanenitrile] | – | – | – | – | – | ≥ 80% | – | – | – | – | – | – | –
4 | CCS(=N)(=O)c1cc(OC(C)(C)C#N)cnc1-c1nc2cc(C(F)(F)F)ncc2n1C (racemic) [Compound P13, 2-[[5-(ethylsulfonimidoyl)-6-[3-methyl-6-(trifluoromethyl)imidazo[4,5-c]pyridin-2-yl]-3-pyridyl]oxy]-2-methyl-propanenitrile] | ≥ 80% | – | ≥ 80% | – | ≥ 80% | – | ≥ 80% | ≥ 80% | ≥ 80% | ≥ 80% | ≥ 80% | – | –
5 | CCn1c(C(F)(F)F)cc2nc(-c3ncc(OC(C)(C)C#N)cc3S(=N)(=O)CC)n(C)c2c1=O (single isomer, unassigned) [Compound P19-A, 2-[[6-[5-ethyl-3-methyl-4-oxo-6-(trifluoromethyl)imidazo[4,5-c]pyridin-2-yl]-5-(ethylsulfonimidoyl)-3-pyridyl]oxy]-2-methyl-propanenitrile] | ≥ 80% | – | ≥ 80% | ≥ 80% | ≥ 80% | – | ≥ 80% | – | ≥ 80% | ≥ 80% | ≥ 80% | – | –
6 | CCS(=N)(=O)c1cc(OC(C)(C)C#N)cnc1-c1cn2cnc(SC(F)(F)F)cc2n1 (single isomer, unassigned) [Compound P7-B, 2-[[5-(ethylsulfonimidoyl)-6-[7-(trifluoromethylsulfanyl)imidazo[1,2-c]pyrimidin-2-yl]-3-pyridyl]oxy]-2-methyl-propanenitrile] | – | – | – | ≥ 80% | – | ≥ 80% | – | – | – | – | – | 80% | –
7 | CCS(=N)(=O)c1cc(C2(C#N)CC2)cnc1-c1nc2cc(C(F)(F)F)ncc2n1C (racemic) [Compound P10, 1-[5-(ethylsulfonimidoyl)-6-[3-methyl-6-(trifluoromethyl)imidazo[4,5-c]pyridin-2-yl]-3-pyridyl]cyclopropanecarbonitrile] | ≥ 80% | – | ≥ 80% | ≥ 80% | – | – | – | – | ≥ 80% | – | – | – | ≥ 80%
8 | CCS(=N)(=O)c1cc(OC(C)(C)C#N)cnc1-c1cn2cnc(SC(F)(F)F)cc2n1 (racemic) [Compound P7, 2-[[5-(ethylsulfonimidoyl)-6-[7-(trifluoromethylsulfanyl)imidazo[1,2-c]pyrimidin-2-yl]-3-pyridyl]oxy]-2-methyl-propanenitrile] | – | – | ≥ 80% | ≥ 80% | ≥ 80% | ≥ 80% | ≥ 80% | – | ≥ 80% | – | ≥ 80% | – | –
9 | CCS(=N)(=O)c1cc(OC(C)(C)C#N)cnc1-c1nc2cc(C(F)(F)F)n(C3CC3)c(=O)c2n1C (single isomer, unassigned) [Compound P1-B, 2-[[6-[5-cyclopropyl-3-methyl-4-oxo-6-(trifluoromethyl)imidazo[4,5-c]pyridin-2-yl]-5-(ethylsulfonimidoyl)-3-pyridyl]oxy]-2-methyl-propanenitrile] | – | – | – | ≥ 80% | – | ≥ 80% | – | – | – | – | – | – | –
